The DC50 is the midpoint of the concentration-degradation curve.

Bounds are passed on as bounds.

This assay concerns Androgen Receptor (AR). The assay can be described thus: Androgen Receptor ELISA assay (AR degradation in LNCaP and/or VCaP cells). Type of assay: cell-based. The settings on record: degradation of AR, 5 hours incubation, R1881 in media. As to the method: Assay for Testing AR Degradation Driven by Compounds of the Present Disclosure.
Androgen Receptor ELISA Assay. Compounds were evaluated in the following assay in LNCaP and/or VCaP cells utilizing similar protocols. The protocols used with VCaP cells are described below. The androgen receptor ELISA assay was performed using PathScan AR Sandwich ELISA (Cell Signaling Catalog#12850) according to the following assay steps.
VCaP cells were seeded at 40,000 cells/well at a volume of 100 μL/well in VCaP assay medium [Phenol red free RPMI (Gibco Cat#11835-030); 5% Charcoal Stripped (Dextran treated) FBS (Omega Scientific, Cat#FB-04); 1% penstrep (Life Technologies, Gibco Cat#: 10378-016)] in Corning 3904 plates. The cells were grown for a minimum of 3 days.
First, cells were dosed with compounds diluted in […]—in a polypropylene plate avoiding the use of outer columns according to the following protocol: (1)(i) 1000× stock plate in DMSO was made; (ii) 20 mM stock diluted 1/6.7 with DMSO (5 μL+28.3 μL DMSO)=3 mM into row H; (iii) serial dilutions in ½ log doses (10 μL of bifunctional compound+20 μL DMSO) was performed from row H towards row B with row A being reserved for DMSO; (iv) 7 doses total (final concentration in this 1000× plate will be 3 mM, 1 mM, 333 μM, 111 μM, etc). (2)(i) A 10× stock plate in media was made; (ii) 2.5 μL of the 1000× stock was trasnferred to a new 10× stock plate (use 12 channel pipet, start at A (DMSO control) work thru H. When 247.5 μL of media was added to this plate, it served as a 10× stock; (iii) made media+1 nM R1881 for making 10× stock plate; (iv) added 247.5 μL of media with 1 nM R1881 to each well of the 10× stock plate, mix.
Then 22 μL of 10× stock was added to cells and incubated for 5 hours. 1× Cell Signaling Cell lysis buffer was made (Catalogue #9803; comes with the kit) to have […], and was kept on ice. Media was aspirated, and 100 μL 1× cell lysis buffer/well was added. The cells were placed on a shaker located in a cold room for 10 minutes and shaken at speed 7. The lysate mixture was mix and 20 μL transferred to 100 μl of Diluent in ELISA plate (0.15 μg/ml-0.075 μg/ml). The lysate-diluent mixture was store at 4° C. overnight on a shaker located in a cold room at speed 5 (gentle swirl).
The lysate-diluent mixture was shaken for 30 minutes at 37° C. The mouse AR antibody, anti-mouse antibody, TMB, and STOP solution were allowed to come to room temperature. The 1×ELISA buffer included in kit was made and loaded in reservoir. Media from the plate was discarded, the ELISA plate was tapped hard on paper towel, and washed 4×200 μl ELISA wash buffer using a plate washer for the first three washes and an eight channel aspirator for the fourth wash to more thoroughly aspirate the solution.
Next, 100 μL/well of mouse AR detection Ab was added; the plate was covered and shaken at 37° C. for 1 hour; media was discarded from the plates, the plates tapped on a paper towel and washed four times with 200 μL ELISA wash buffer with a plate washer for the first three washes and an eight channel aspirator for the fourth wash; 100 μL/well of anti-mouse—HRP conjugated Ab (comes with the kit) was added; the plates wascover and shaken at 37° C. for 30 minutes; the TMB reagent was allowed to come to room temperature; the media from the plate was discarded, the plates tapped on paper towel, and washed four times with 200 μL ELISA wash buffer with a plate washer for the first three washes and an eight channel aspirator for the fourth wash; plates were tapped on paper towl; 100 μL TMB was added to each well and the plate shaken for 2 minutes—while watching color. STOP solution (100 μL) was added when light blue color developed. The plates were shake and read at 450 nm.
Data was analyzed and plotted using GraphPad Prism software. Exemplary compounds of Table 1 were assayed and the data shown below in Table 2. […]
A general note: In an ELISA, binding on a coated surface is turned into a signal by an enzyme label.
As to `CCN(CC1CCN(CCOc2ccc(CN3C(=S)N(c4ccc(C#N)c(C(F)(F)F)c4)C(=O)C3(C)C)cn2)CC1)[C@H]1C[C@H](Oc2ccc3c(c2)C(=O)N(C2CCC(=O)NC2=O)C3=O)C1` (some centres unmarked) [Compound 16, 4-(3-((6-(2-(4-((((1r,3r)-3-((2-(2,6-dioxopiperidin-3-yl)-1,3-dioxoisoindolin-5-yl)oxy)cyclobutyl)(ethyl)amino)methyl)piperidin-1-yl)ethoxy)pyridin-3-yl)methyl)-4,4-dimethyl-5-oxo-2-thioxoimidazolidin-1-yl)-2-(trifluoromethyl)benzonitrile], the DC50 was in the range of 1 to 10 nM and the “Dmax Code” value is on record as “C (C<50)”.
For `CC(C)N(CC1CCN(Cc2ccc(-n3c(=O)n(-c4ccc(C#N)c(C(F)(F)F)c4)c4ccccc43)cc2)CC1)[C@H]1C[C@H](Oc2ccc3c(c2)C(=O)N(C2CCC(=O)NC2=O)C3=O)C1` (some centres unmarked) [Compound 15, 4-(3-(4-((4-((((1r,3r)-3-((2-(2,6-dioxopiperidin-3-yl)-1,3-dioxoisoindolin-5-yl)oxy)cyclobutyl)(isopropyl)amino)methyl)piperidin-1-yl)methyl)phenyl)-2-oxo-2,3-dihydro-1H-benzo[d]imidazol-1-yl)-2-(trifluoromethyl)benzonitrile] the same measures were 1 to 10 nM and “C (C<50)”.
As for `CC1(C)C(=O)N(c2ccc(C#N)c(C(F)(F)F)c2)C(=S)N1Cc1ccc(N2CCC(CN3CCN(c4ccc5c(c4)C(=O)N(C4CCC(=O)NC4=O)C5=O)CC3)CC2)nc1` (centres unmarked) [Compound 3, 4-(3-((6-(4-((4-(2-(2,6-dioxopiperidin-3-yl)-1,3-dioxoisoindolin-5-yl)piperazin-1-yl)methyl)piperidin-1-yl)pyridin-3-yl)methyl)-4,4-dimethyl-5-oxo-2-thioxoimidazolidin-1-yl)-2-(trifluoromethyl)benzonitrile], the DC50 was less than 1 nM and the “Dmax Code” value is given as “A (A≥70)”.
Consider `Cc1c(C#N)c(-c2ccc(C#N)cc2)c(C)n1Cc1ccc(OCCOCCN2CCC(CN3CCN(c4ccc5c(c4)C(=O)N(C4CCC(=O)NC4=O)C5=O)CC3)CC2)cc1` (centres unmarked) [Compound 22, 4-(4-cyanophenyl)-1-(4-(2-(2-(4-((4-(2-(2,6-dioxopiperidin-3-yl)-1,3-dioxoisoindolin-5-yl)piperazin-1-yl)methyl)piperidin-1-yl)ethoxy)ethoxy)benzyl)-2,5-dimethyl-1H-pyrrole-3-carbonitrile], for which the DC50 was not below 100 nM and the “Dmax Code” value was “C (C<50)”.
Consider `N#Cc1ncc(N2C(=O)C3(CCC3)N(c3ccc(C4CCN(CC5CCN(c6ccc7c(c6)C(=O)N(C6CCC(=O)NC6=O)C7)CC5)CC4)cc3)C2=S)cc1Cl` (centres unmarked) [Compound 11], for which the DC50 was 1 to 10 nM and the “Dmax Code” value is on record as “C (C<50)”.
For the molecule `Cc1c(C#N)c(-c2ccc(C#N)cc2)c(C)n1Cc1ccc(OCCCN2CCC(CN3CCN(c4ccc5c(c4)C(=O)N(C4CCC(=O)NC4=O)C5=O)CC3)CC2)cc1` (centres unmarked) [Compound 19, 4-(4-cyanophenyl)-1-(4-(3-(4-((4-(2-(2,6-dioxopiperidin-3-yl)-1,3-dioxoisoindolin-5-yl)piperazin-1-yl)methyl)piperidin-1-yl)propoxy)benzyl)-2,5-dimethyl-1H-pyrrole-3-carbonitrile], the DC50 was not below 100 nM and the “Dmax Code” value was “C (C<50)”.
On to `COc1cc(N2C(=O)C3(CCC3)N(c3ccc(N4CCC(CN5CCN(c6ccc7c(c6)C(=O)N(C6CCC(=O)NC6=O)C7=O)CC5)CC4)cc3)C2=S)ccc1C#N` (centres unmarked) [Compound 7, 4-(5-(4-(4-((4-(2-(2,6-dioxopiperidin-3-yl)-1,3-dioxoisoindolin-5-yl)piperazin-1-yl)methyl)piperidin-1-yl)phenyl)-8-oxo-6-thioxo-5,7-diazaspiro[3.4]octan-7-yl)-2-methoxybenzonitrile], for which the DC50 is 1 to 10 nM and the “Dmax Code” value is “B (50≤B<70)”.
`Cc1c(C#N)c(-c2ccc(C#N)cc2)c(C)n1Cc1ccc(OCCN2CCC(CN3CCN(c4ccc5c(c4)C(=O)N(C4CCC(=O)NC4=O)C5=O)CC3)CC2)cc1` (centres unmarked) [Compound 20, 4-(4-cyanophenyl)-1-(4-(2-(4-((4-(2-(2,6-dioxopiperidin-3-yl)-1,3-dioxoisoindolin-5-yl)piperazin-1-yl)methyl)piperidin-1-yl)ethoxy)benzyl)-2,5-dimethyl-1H-pyrrole-3-carbonitrile]: the DC50 is not below 100 nM and the “Dmax Code” value is given as “C (C<50)”.
With `CC(C)N(CC1CCN(c2ccc(Cn3c(=O)n(-c4ccc(C#N)c(C(F)(F)F)c4)c4ccccc43)cc2)CC1)[C@H]1C[C@H](Oc2ccc3c(c2)C(=O)N(C2CCC(=O)NC2=O)C3=O)C1` (some centres unmarked) [Compound 25, 4-(3-(4-(4-((((1r,3r)-3-((2-(2,6-dioxopiperidin-3-yl)-1,3-dioxoisoindolin-5-yl)oxy)cyclobutyl)(isopropyl)amino)methyl)piperidin-1-yl)benzyl)-2-oxo-2,3-dihydro-1H-benzo[d]imidazol-1-yl)-2-(trifluoromethyl)benzonitrile], the DC50 was not below 100 nM and the “Dmax Code” value is listed as “C (C<50)”.
For `N#Cc1ncc(N2C(=O)C3(CCC3)N(c3ccc(CCCCCN4CCN(c5ccc6c(c5)C(=O)N(C5CCC(=O)NC5=O)C6=O)CC4)cc3)C2=S)cc1Cl` (centres unmarked) [Compound 1, 3-chloro-5-(5-(4-(5-(4-(2-(2,6-dioxopiperidin-3-yl)-1,3-dioxoisoindolin-5-yl)piperazin-1-yl)pentyl)phenyl)-8-oxo-6-thioxo-5,7-diazaspiro[3.4]octan-7-yl)picolinonitrile], the DC50 was less than 1 nM and the “Dmax Code” value is “A (A≥70)”.
As for `N#Cc1ncc(N2C(=O)C3(CCC3)N(c3ccc(OC4CCN(CC5CCN(c6ccc7c(c6)C(=O)N(C6CCC(=O)NC6=O)C7=O)CC5)CC4)c(F)c3)C2=S)cc1Cl` (centres unmarked) [Compound 10, 3-chloro-5-(5-(4-((1-((1-(2-(2,6-dioxopiperidin-3-yl)-1,3-dioxoisoindolin-5-yl)piperidin-4-yl)methyl)piperidin-4-yl)oxy)-3-fluorophenyl)-8-oxo-6-thioxo-5,7-diazaspiro[3.4]octan-7-yl)picolinonitrile], the DC50 fell in the range of 1 to 10 nM and the “Dmax Code” value was “A (A≥70)”.
The like results for `Cc1c(C#N)c(-c2ccc(C#N)cc2)c(C)n1Cc1ccc(OCCOCCOCCN2CCC(CN3CCN(c4ccc5c(c4)C(=O)N(C4CCC(=O)NC4=O)C5=O)CC3)CC2)cc1` (centres unmarked) [Compound 21, 4-(4-cyanophenyl)-1-(4-(2-(2-(2-(4-((4-(2-(2,6-dioxopiperidin-3-yl)-1,3-dioxoisoindolin-5-yl)piperazin-1-yl)methyl)piperidin-1-yl)ethoxy)ethoxy)ethoxy)benzyl)-2,5-dimethyl-1H-pyrrole-3-carbonitrile] were, in that order, not below 100 nM and “C (C<50)”.
The like results for `CC1(C)C(=O)N(c2ccc(C#N)c(C(F)(F)F)c2)C(=S)N1Cc1ccc(OCCN2CCC(CN3CCN(c4ccc5c(c4)C(=O)N(C4CCC(=O)NC4=O)C5=O)CC3)CC2)nc1` (centres unmarked) [Compound 14, 4-(3-((6-(2-(4-((4-(2-(2,6-dioxopiperidin-3-yl)-1,3-dioxoisoindolin-5-yl)piperazin-1-yl)methyl)piperidin-1-yl)ethoxy)pyridin-3-yl)methyl)-4,4-dimethyl-5-oxo-2-thioxoimidazolidin-1-yl)-2-(trifluoromethyl)benzonitrile] were, in that order, 1 to 10 nM and “B (50≤B<70)”.

The values are drawn from US20220144809A1, “COMPOUNDS AND METHODS FOR THE TARGETED DEGRADATION OF ANDROGEN RECEPTOR AND ASSOCIATED METHODS OF USE” (Arvinas Operations, Inc., priority 2020, published 2022).
